Test results: patent publication US6914045B2, “Glycopeptide antibiotics” (Wyeth Holdings Corporation, priority 2001, dated 2005)
In brackets after ≈: the same amount, converted by molar mass. One block for each molecule: values may come before it.

Experiments:
Assay in all cases: in vitro antibacterial evaluation, MIC by broth dilution
Type in all cases: cell-based
Staphylococcus sp. = details: broth dilution, 18 hours at 35° C.
Outline: (§1)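 MIC = lowest antibiotic concentration preventing visible growth; inoculum 5×10^5 CFU/mL; drug range 64-0.06 μg/mL; Muller-Hinton II […]; NCCLS M7-A2 guidance.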

Streptococcus sp. = details: broth dilution, 18 hours at 35° C.
Outline: as §1

Escherichia coli = details: 18 hours at 35° C.
Outline: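 Step 1: dilute antibiotic across 64-0.06 μg/mL in Muller-Hinton II […]. Step 2: inoculate at 5×10^5 CFU/mL.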

Enterococcus sp. = details: broth dilution, 18 hours at 35° C.
Outline: as §1

[1] = Enterococcus faecalis (ATCC 29212)
[2] = Enterococcus faecalis (GC 4553)
[3] = Enterococcus faecalis (GC 4554)

- MIC Coagulase Negative Staphylococcus (GC 4547) (Staphylococcus sp.): >64 µg/mL
- MIC Coagulase Negative Staphylococcus (GC 4548) (Staphylococcus sp.): >64 µg/mL
- MIC Coagulase Negative Staphylococcus (GC 4549) (Staphylococcus sp.): >64 µg/mL
- MIC Coagulase Negative Staphylococcus (GC 4551) (Staphylococcus sp.): >64 µg/mL
- MIC Staphylococcus aureus (ATCC 29213) (Staphylococcus sp.): >64 µg/mL
- MIC Staphylococcus aureus (GC 1131) (Staphylococcus sp.): >64 µg/mL
- MIC Staphylococcus aureus (GC 4541) (Staphylococcus sp.): >64 µg/mL
- MIC Staphylococcus aureus (GC 4542) (Staphylococcus sp.): >64 µg/mL
- MIC Staphylococcus aureus (GC 4544) (Staphylococcus sp.): >64 µg/mL
- MIC Staphylococcus aureus (GC 4545) (Staphylococcus sp.): >64 µg/mL
- MIC Staphylococcus aureus-SMITH (GC 4543) (Staphylococcus sp.): >64 µg/mL
- MIC Staphylococcus aureus (ATCC 29213) (Staphylococcus sp.; strain ATCC 29213): >64 µg/mL
- MIC Staphylococcus aureus (GC 1131) (Staphylococcus sp.; strain GC 1131): >64 µg/mL
- MIC Staphylococcus aureus (GC 4541) (Staphylococcus sp.; strain GC 4541): >64 µg/mL
- MIC Staphylococcus aureus (GC 4542) (Staphylococcus sp.; strain GC 4542): >64 µg/mL
- MIC Staphylococcus aureus (GC 4544) (Staphylococcus sp.; strain GC 4544): >64 µg/mL
- MIC Staphylococcus aureus (GC 4545) (Staphylococcus sp.; strain GC 4545): >64 µg/mL
- MIC Streptococcus agalactiae (GC 4564) (Streptococcus sp.): >64 µg/mL
- MIC Streptococcus pyogenes (ID-3187) (Streptococcus sp.): >64 µg/mL
- MIC Streptococcus agalactiae (GC 4564) (Streptococcus sp.; strain GC 4564): >64 µg/mL
- MIC Streptococcus pyogenes (ID-3187) (Streptococcus sp.; strain ID-3187): >64 µg/mL
- MIC Escherichia coli (ATCC 25922) (Escherichia coli): >64 µg/mL
- MIC Escherichia coli (GC 4559) (Escherichia coli): >64 µg/mL
- MIC Escherichia coli (GC 4560) (Escherichia coli): >64 µg/mL
- MIC Enterococcus avium (GC 4558) (Enterococcus sp.; Enterococcus avium (GC 4558)): >64 µg/mL
- MIC Enterococcus faecalis (ATCC 29212) (Enterococcus sp.; [1]): >64 µg/mL
- MIC Enterococcus faecalis (GC 4553) (Enterococcus sp.; [2]): >64 µg/mL
- MIC Enterococcus faecalis (GC 4554) (Enterococcus sp.; [3]): >64 µg/mL
- MIC Enterococcus faecium (GC 2243) (Enterococcus sp.; Enterococcus faecium (GC 2243)): >64 µg/mL
- MIC Enterococcus faecium (GC 4556) (Enterococcus sp.; Enterococcus faecium (GC 4556)): >64 µg/mL
- MIC Enterococcus faecium (GC 4557) (Enterococcus sp.; Enterococcus faecium (GC 4557)): >64 µg/mL
- MIC Enterococcus faecalis (GC 2242) (Enterococcus sp.): >64 µg/mL
- MIC Enterococcus faecalis (GC 4552) (Enterococcus sp.): >64 µg/mL
- MIC Enterococcus faecalis (ATCC 29212) (Enterococcus sp.; strain ATCC 29212): >64 µg/mL
- MIC Enterococcus faecalis (GC 2242) (Enterococcus sp.; strain GC 2242): >64 µg/mL
- MIC Enterococcus faecium (GC 2243) (Enterococcus sp.; strain GC 2243): >64 µg/mL
- MIC Enterococcus faecalis (GC 4552) (Enterococcus sp.; strain GC 4552): >64 µg/mL
- MIC Enterococcus faecalis (GC 4553) (Enterococcus sp.; strain GC 4553): >64 µg/mL
- MIC Enterococcus faecalis (GC 4554) (Enterococcus sp.; strain GC 4554): >64 µg/mL
- MIC Enterococcus faecium (GC 4556) (Enterococcus sp.; strain GC 4556): >64 µg/mL
- MIC Enterococcus faecium (GC 4557) (Enterococcus sp.; strain GC 4557): >64 µg/mL
- MIC Enterococcus avium (GC 4558) (Enterococcus sp.; strain GC 4558): >64 µg/mL
Compound: CC(c1ccc(F)cc1)C1NC(=O)CNC(=O)C(CO)NC(=O)C(C(O)C2CNC(=N)N2C2OC(CO)C(O)C(O)C2O)NC(=O)C(C(O)C2CNC(=N)N2)NC(=O)C(Cc2ccc(OC3OC(CO)C(OC4OC(CO)C(O)C(O)C4O)C(O)C3O)cc2)NC1=O (stereo not drawn) [Example 261a, Cyclo[glycyl-4-fluoro-β-methylphenylalanyl-O-(4-O-hexopyranosylhexopyranosyl)tyrosyl-3-(2-iminoimidazolidin-4-yl)seryl-3-(3-hexopyranosyl-2-iminoimidazolidin-4-yl)serylseryl]]
- MIC Staphylococcus haemolyticus (GC 4546) (Staphylococcus sp.): >64 µg/mL

- MIC Coagulase Negative Staphylococcus (GC 4547) (Staphylococcus sp.): 8 µg/mL (≈ 5.72 µM)
- MIC Coagulase Negative Staphylococcus (GC 4548) (Staphylococcus sp.): 4 µg/mL (≈ 2.86 µM)
- MIC Coagulase Negative Staphylococcus (GC 4549) (Staphylococcus sp.): 4 µg/mL (≈ 2.86 µM)
- MIC Coagulase Negative Staphylococcus (GC 4551) (Staphylococcus sp.): 8 µg/mL (≈ 5.72 µM)
- MIC Staphylococcus aureus (ATCC 29213) (Staphylococcus sp.): 8 µg/mL (≈ 5.72 µM)
- MIC Staphylococcus aureus (GC 1131) (Staphylococcus sp.): 16 µg/mL (≈ 11.4 µM)
- MIC Staphylococcus aureus (GC 4541) (Staphylococcus sp.): 16 µg/mL (≈ 11.4 µM)
- MIC Staphylococcus aureus (GC 4542) (Staphylococcus sp.): 16 µg/mL (≈ 11.4 µM)
- MIC Staphylococcus aureus (GC 4544) (Staphylococcus sp.): 8 µg/mL (≈ 5.72 µM)
- MIC Staphylococcus aureus (GC 4545) (Staphylococcus sp.): 16 µg/mL (≈ 11.4 µM)
- MIC Staphylococcus aureus-SMITH (GC 4543) (Staphylococcus sp.): 8 µg/mL (≈ 5.72 µM)
- MIC Staphylococcus aureus (ATCC 29213) (Staphylococcus sp.; strain ATCC 29213): 8 µg/mL (≈ 5.72 µM)
- MIC Staphylococcus aureus (GC 1131) (Staphylococcus sp.; strain GC 1131): 16 µg/mL (≈ 11.4 µM)
- MIC Staphylococcus aureus (GC 4541) (Staphylococcus sp.; strain GC 4541): 16 µg/mL (≈ 11.4 µM)
- MIC Staphylococcus aureus (GC 4542) (Staphylococcus sp.; strain GC 4542): 16 µg/mL (≈ 11.4 µM)
- MIC Staphylococcus aureus (GC 4544) (Staphylococcus sp.; strain GC 4544): 8 µg/mL (≈ 5.72 µM)
- MIC Staphylococcus aureus (GC 4545) (Staphylococcus sp.; strain GC 4545): 16 µg/mL (≈ 11.4 µM)
- MIC Streptococcus agalactiae (GC 4564) (Streptococcus sp.; strain GC 4564): 8 µg/mL (≈ 5.72 µM)
- MIC Streptococcus pyogenes (ID-3187) (Streptococcus sp.; strain ID-3187): 4 µg/mL (≈ 2.86 µM)
- MIC Escherichia coli (ATCC 25922) (Escherichia coli): >64 µg/mL
- MIC Escherichia coli (GC 4559) (Escherichia coli): >64 µg/mL
- MIC Escherichia coli (GC 4560) (Escherichia coli): 4 µg/mL (≈ 2.86 µM)
- MIC Enterococcus avium (GC 4558) (Enterococcus sp.; Enterococcus avium (GC 4558)): 64 µg/mL (≈ 45.8 µM)
- MIC Enterococcus faecalis (ATCC 29212) (Enterococcus sp.; [1]): >64 µg/mL
- MIC Enterococcus faecalis (GC 4553) (Enterococcus sp.; [2]): 64 µg/mL (≈ 45.8 µM)
- MIC Enterococcus faecalis (GC 4554) (Enterococcus sp.; [3]): >64 µg/mL
- MIC Enterococcus faecium (GC 2243) (Enterococcus sp.; Enterococcus faecium (GC 2243)): >64 µg/mL
- MIC Enterococcus faecium (GC 4556) (Enterococcus sp.; Enterococcus faecium (GC 4556)): 64 µg/mL (≈ 45.8 µM)
- MIC Enterococcus faecium (GC 4557) (Enterococcus sp.; Enterococcus faecium (GC 4557)): 16 µg/mL (≈ 11.4 µM)
- MIC Enterococcus faecalis (ATCC 29212) (Enterococcus sp.; strain ATCC 29212): >64 µg/mL
- MIC Enterococcus faecalis (GC 2242) (Enterococcus sp.; strain GC 2242): 64 µg/mL (≈ 45.8 µM)
- MIC Enterococcus faecium (GC 2243) (Enterococcus sp.; strain GC 2243): >64 µg/mL
- MIC Enterococcus faecalis (GC 4552) (Enterococcus sp.; strain GC 4552): 64 µg/mL (≈ 45.8 µM)
- MIC Enterococcus faecalis (GC 4553) (Enterococcus sp.; strain GC 4553): 64 µg/mL (≈ 45.8 µM)
- MIC Enterococcus faecalis (GC 4554) (Enterococcus sp.; strain GC 4554): >64 µg/mL
- MIC Enterococcus faecium (GC 4556) (Enterococcus sp.; strain GC 4556): 64 µg/mL (≈ 45.8 µM)
- MIC Enterococcus faecium (GC 4557) (Enterococcus sp.; strain GC 4557): 16 µg/mL (≈ 11.4 µM)
- MIC Enterococcus avium (GC 4558) (Enterococcus sp.; strain GC 4558): 64 µg/mL (≈ 45.8 µM)
Compound: CC(C)CC(=O)OC1C(OC2C(CO)OC(Oc3ccc(CC4NC(=O)C(C(C)c5ccc(F)cc5)NC(=O)CNC(=O)C(CO)NC(=O)C(C(O)C5CNC(=N)N5C5OC(CO)C(O)C(O)C5O)NC(=O)C(C(O)C5CNC(=N)N5)NC4=O)cc3)C(O)C2O)OC(CO)C(O)C1O (stereo not drawn) [Example 261b, Cyclo[glycyl-4-fluoro-β-methylphenylalanyl-O-[4-O-[2-O-(3-methylbutanoyl)hexopyranosyl]-hexopyranosyl]tyrosyl-3-(2-iminoimidazolidin-4-yl)seryl-3-(3-hexopyranosyl-2-imino-imidazolidin-4-yl)serylseryl]]
- MIC Staphylococcus haemolyticus (GC 4546) (Staphylococcus sp.): 8 µg/mL (≈ 5.72 µM)
